Test results as given in US20260262643A1, “HERBICIDAL BENZOXAZINES” (FMC CORPORATION, priority 2022, published 2026).

Columns and labels:
[1] = test system: ryegrass, Italian; experiment: Test A preemergence; type: in vivo, Lolium multiflorum; conditions: 0 to 100 scale
How it was run: (§1)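 Visual injury ratings on a 0–100 scale (100 = complete control) versus untreated controls, taken 10 days after treatment in greenhouse. Preemergence: directed soil spray onto seeded loam/sand. Postemergence: foliar application at one- to two-leaf stage, plants 2–10 cm. Formulation: non-phytotoxic solvent plus surfactant.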

[2] = test system: oat, wild; experiment: Test A postemergence; type: in vivo, Avena fatua; conditions: postemergence, 10 days; for Oat, Wild plant response rating: 125 g ai/ha, 0 to 100 scale, 0 no effect, 100 complete control; for Plant response rating, Oat, Wild: 500 g ai/ha, visual injury, 0 to 100 scale (0 no effect, 100 complete control)
How it was run: as §1

[3] = test system: rice; experiment: Test B flooded paddy test; type: in vivo, Oryza sativa; conditions: 250 g ai/ha, Flood, 13 days, 0 to 100 scale (0 no effect, 100 complete control)
How it was run: (§2)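 2-leaf stage; pots flooded 3 cm over soil; compound dosed into paddy water; depth kept constant. Greenhouse, 13 d. Visual rating vs controls, 0 (no effect)–100 (complete control). Dash = no result.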

[4] = test system: blackgrass; experiment: Test A postemergence; type: in vivo, Alopecurus myosuroides; conditions: postemergence, 10 days; for Blackgrass plant response rating: 125 g ai/ha, 0 to 100 scale, 0 no effect, 100 complete control; for Plant response rating, Blackgrass: 500 g ai/ha, visual injury, 0 to 100 scale (0 no effect, 100 complete control)
How it was run: as §1

[5] = test system: foxtail, giant; experiment: Test A postemergence; type: in vivo, Setaria faberi; conditions: postemergence, 10 days; for Foxtail, Giant plant response rating: 125 g ai/ha, 0 to 100 scale, 0 no effect, 100 complete control; for Plant response rating, Foxtail, Giant: 500 g ai/ha, visual injury, 0 to 100 scale (0 no effect, 100 complete control)
How it was run: as §1

[6] = test system: galium; experiment: Test A postemergence; type: in vivo, Galium aparine; conditions: postemergence, 10 days; for Galium plant response rating: 125 g ai/ha, 0 to 100 scale, 0 no effect, 100 complete control; for Plant response rating, Galium: 500 g ai/ha, visual injury, 0 to 100 scale (0 no effect, 100 complete control)
How it was run: as §1

[7] = test system: oat, wild; experiment: Test A preemergence; type: in vivo, Avena fatua; conditions: 0 to 100 scale
How it was run: as §1

[8] = test system: pigweed, palmer; experiment: Test A postemergence; type: in vivo, Amaranthus palmeri; conditions: postemergence, 10 days; for Pigweed, Palmer plant response rating: 125 g ai/ha, 0 to 100 scale, 0 no effect, 100 complete control; for Plant response rating, Pigweed, Palmer: 500 g ai/ha, visual injury, 0 to 100 scale (0 no effect, 100 complete control)
How it was run: as §1

[9] = test system: barnyardgrass; experiment: Test A postemergence; type: in vivo, Echinochloa crusgalli; conditions: postemergence, 10 days; for Barnyardgrass plant response rating: 125 g ai/ha, 0 to 100 scale, 0 no effect, 100 complete control; for Plant response rating, Barnyardgrass: 500 g ai/ha, visual injury, 0 to 100 scale (0 no effect, 100 complete control)
How it was run: as §1

[10] = test system: barnyardgrass; experiment: Test A preemergence; type: in vivo, Echinochloa crusgalli; conditions: visual injury after 10 days, 0 to 100 scale, 0 is no effect, 100 is complete control
How it was run: as §1

[11] = test system: barnyardgrass; experiment: Test B flooded paddy test; type: in vivo, Echinochloa crus-galli; conditions: 250 g ai/ha, Flood, 13 days, 0 to 100 scale (0 no effect, 100 complete control)
How it was run: as §2

[12] = test system: kochia; experiment: Test A postemergence; type: in vivo, Bassia scoparia; conditions: postemergence, 10 days; for Kochia plant response rating: 125 g ai/ha, 0 to 100 scale, 0 no effect, 100 complete control; for Plant response rating, Kochia: 500 g ai/ha, visual injury, 0 to 100 scale (0 no effect, 100 complete control)
How it was run: as §1

[13] = test system: horseweed; experiment: Test A postemergence; type: in vivo, Erigeron canadensis; conditions: postemergence, 10 days; for Horseweed plant response rating: 125 g ai/ha, 0 to 100 scale, 0 no effect, 100 complete control; for Plant response rating, Horseweed: 500 g ai/ha, visual injury, 0 to 100 scale (0 no effect, 100 complete control)
How it was run: as §1

[14] = test system: corn; experiment: Test A preemergence; type: in vivo, Zea mays; conditions: 0 to 100 scale
How it was run: as §1

[15] = test system: foxtail, giant; experiment: Test A preemergence; type: in vivo, Setaria faberi; conditions: 0 to 100 scale
How it was run: as §1

[16] = test system: soybean; experiment: Test A postemergence; type: in vivo, Glycine max; conditions: postemergence, 10 days; for Soybean plant response rating: 125 g ai/ha, 0 to 100 scale, 0 no effect, 100 complete control; for Plant response rating, Soybean: 500 g ai/ha, visual injury, 0 to 100 scale (0 no effect, 100 complete control)
How it was run: as §1

[17] = test system: ragweed; experiment: Test A postemergence; type: in vivo, Ambrosia artemisiifolia; conditions: postemergence, 10 days; for Ragweed plant response rating: 125 g ai/ha, 0 to 100 scale, 0 no effect, 100 complete control; for Plant response rating, Ragweed: 500 g ai/ha, visual injury, 0 to 100 scale (0 no effect, 100 complete control)
How it was run: as §1

[18] = test system: blackgrass; experiment: Test A preemergence; type: in vivo, Alopecurus myosuroides; conditions: 0 to 100 scale
How it was run: as §1

[19] = test system: wheat; experiment: Test A preemergence; type: in vivo, Triticum aestivum; conditions: 0 to 100 scale
How it was run: as §1

[20] = test system: pigweed, palmer; experiment: Test A preemergence; type: in vivo, Amaranthus palmeri; conditions: 0 to 100 scale
How it was run: as §1

[21] = test system: kochia; experiment: Test A preemergence; type: in vivo, Bassia scoparia; conditions: 0 to 100 scale
How it was run: as §1

[22] = test system: ryegrass, Italian; experiment: Test A postemergence; type: in vivo, Lolium multiflorum; conditions: postemergence, 10 days; for Ryegrass, Italian plant response rating: 125 g ai/ha, 0 to 100 scale, 0 no effect, 100 complete control; for Plant response rating, Ryegrass, Italian: 500 g ai/ha, visual injury, 0 to 100 scale (0 no effect, 100 complete control)
How it was run: as §1

[23] = test system: corn; experiment: Test A postemergence; type: in vivo, Zea mays; conditions: postemergence, 10 days; for Corn plant response rating: 125 g ai/ha, 0 to 100 scale, 0 no effect, 100 complete control; for Plant response rating, Corn: 500 g ai/ha, visual injury, 0 to 100 scale (0 no effect, 100 complete control)
How it was run: as §1

[24] = test system: ragweed; experiment: Test A preemergence; type: in vivo, Ambrosia artemisiifolia; conditions: 0 to 100 scale
How it was run: as §1

[25] = test system: soybean; experiment: Test A preemergence; type: in vivo, Glycine max; conditions: 0 to 100 scale
How it was run: as §1

[26] = test system: sedge, umbrella; experiment: Test B flooded paddy test; type: in vivo, Cyperus difformis; conditions: 250 g ai/ha, Flood, 13 days, 0 to 100 scale (0 no effect, 100 complete control)
How it was run: as §2

[27] = test system: ducksalad; experiment: Test B flooded paddy test; type: in vivo, Heteranthera limosa; conditions: 250 g ai/ha, Flood, 13 days, 0 to 100 scale (0 no effect, 100 complete control)
How it was run: as §2

[28] = test system: wheat; experiment: Test A postemergence; type: in vivo, Triticum aestivum; conditions: postemergence, 10 days; for Wheat plant response rating: 125 g ai/ha, 0 to 100 scale, 0 no effect, 100 complete control; for Plant response rating, Wheat: 500 g ai/ha, visual injury, 0 to 100 scale (0 no effect, 100 complete control)
How it was run: as §1

[29] = 500 g ai/ha, visual injury after 10 days, 0 is no effect, 100 is complete control

COc1cc(C(=O)N2C[C@H](C)Oc3c(Cl)cccc32)cc(-n2cncn2)c1 [Compound 138]
100: Plant response rating, Ryegrass, Italian [1, 29] | Plant response rating, Galium [6] | Plant response rating, Barnyardgrass ([10]; 500 g ai/ha) | Plant response rating, Foxtail, Giant ([15]; 125 g ai/ha) | Plant response rating, Foxtail, Giant [15, 29] | Soybean plant response rating [16] | Plant response rating, Soybean [16] | Plant response rating, Pigweed, Palmer [20, 29] | Plant response rating, Ryegrass, Italian [22] | Plant response rating, Soybean [25, 29]
70: Ryegrass, Italian plant response rating [22] | Plant response rating, Soybean ([25]; 125 g ai/ha) | Plant response rating, Ducksalad [27]
30: Pigweed, Palmer plant response rating [8]
75: Plant response rating, Sedge, Umbrella [26]
40: Plant response rating, Oat, Wild ([7]; 125 g ai/ha) | Plant response rating, Ragweed [17] | Plant response rating, Wheat ([19]; 125 g ai/ha) | Wheat plant response rating [28]
90: Plant response rating, Blackgrass [4] | Foxtail, Giant plant response rating [5] | Plant response rating, Foxtail, Giant [5] | Plant response rating, Oat, Wild [7, 29] | Plant response rating, Pigweed, Palmer [8] | Plant response rating, Barnyardgrass ([10]; 125 g ai/ha) | Plant response rating, Blackgrass [18, 29] | Plant response rating, Wheat [19, 29] | Plant response rating, Pigweed, Palmer ([20]; 125 g ai/ha) | Plant response rating, Corn [23]
0: Horseweed plant response rating [13] | Plant response rating, Horseweed [13] | Ragweed plant response rating [17] | Plant response rating, Kochia ([21]; 125 g ai/ha) | Plant response rating, Ragweed ([24]; 125 g ai/ha) | Plant response rating, Ragweed [24, 29]
60: Barnyardgrass plant response rating [9]
35: Plant response rating, Rice [3] | Plant response rating, Barnyardgrass [11]
80: Plant response rating, Ryegrass, Italian ([1]; 125 g ai/ha) | Plant response rating, Oat, Wild [2] | Blackgrass plant response rating [4] | Galium plant response rating [6] | Plant response rating, Barnyardgrass [9] | Kochia plant response rating [12] | Plant response rating, Kochia [12] | Plant response rating, Blackgrass ([18]; 125 g ai/ha) | Corn plant response rating [23] | Plant response rating, Wheat [28]
50: Oat, Wild plant response rating [2] | Plant response rating, Kochia [21, 29]
10: Plant response rating, Corn ([14]; 125 g ai/ha) | Plant response rating, Corn [14, 29]

CC(C)c1ncn(-c2ccc(C#N)c(C(=O)N3C[C@H](C)Oc4c(Cl)cccc43)c2)n1 [Compound 140]
80: Plant response rating, Blackgrass [4] | Plant response rating, Kochia ([21]; 125 g ai/ha)
10: Plant response rating, Corn [14, 29]
20: Plant response rating, Barnyardgrass [11] | Ragweed plant response rating [17] | Plant response rating, Wheat ([19]; 125 g ai/ha)
70: Plant response rating, Ryegrass, Italian [1, 29] | Blackgrass plant response rating [4] | Galium plant response rating [6] | Plant response rating, Galium [6] | Plant response rating, Oat, Wild [7, 29] | Pigweed, Palmer plant response rating [8] | Plant response rating, Barnyardgrass [9] | Plant response rating, Blackgrass [18, 29] | Corn plant response rating [23]
40: Plant response rating, Ragweed [17] | Plant response rating, Blackgrass ([18]; 125 g ai/ha) | Ryegrass, Italian plant response rating [22] | Plant response rating, Ducksalad [27]
90: Foxtail, Giant plant response rating [5] | Plant response rating, Foxtail, Giant [5] | Plant response rating, Pigweed, Palmer [8] | Plant response rating, Barnyardgrass ([10]; 125 g ai/ha) | Plant response rating, Barnyardgrass ([10]; 500 g ai/ha) | Kochia plant response rating [12] | Plant response rating, Kochia [12] | Plant response rating, Foxtail, Giant ([15]; 125 g ai/ha) | Plant response rating, Kochia [21, 29] | Plant response rating, Corn [23]
75: Plant response rating, Sedge, Umbrella [26]
50: Plant response rating, Ryegrass, Italian ([1]; 125 g ai/ha) | Plant response rating, Oat, Wild [2] | Barnyardgrass plant response rating [9] | Plant response rating, Wheat [19, 29] | Plant response rating, Ryegrass, Italian [22] | Plant response rating, Soybean ([25]; 125 g ai/ha)
30: Plant response rating, Oat, Wild ([7]; 125 g ai/ha) | Plant response rating, Ragweed [24, 29] | Wheat plant response rating [28]
60: Plant response rating, Wheat [28]
100: Plant response rating, Foxtail, Giant [15, 29] | Soybean plant response rating [16] | Plant response rating, Soybean [16] | Plant response rating, Pigweed, Palmer ([20]; 125 g ai/ha) | Plant response rating, Pigweed, Palmer [20, 29] | Plant response rating, Soybean [25, 29]
0: Oat, Wild plant response rating [2] | Plant response rating, Rice [3] | Horseweed plant response rating [13] | Plant response rating, Horseweed [13] | Plant response rating, Corn ([14]; 125 g ai/ha) | Plant response rating, Ragweed ([24]; 125 g ai/ha)
